PubChem BioAssay (NCI)
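Results reflect a 48-hour exposure of cells in 96-well plates to compound at five concentrations. TGI marks complete inhibition of growth.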

Assays:
Assay in all cases: NCI tumour cell line growth inhibition, 48 h
[1] = tested on: OVCAR-5 ovarian
[2] = tested on: MDA-MB-435
[3] = tested on: SN12C renal
[4] = tested on: CCRF-CEM leukemia
[5] = tested on: RXF 393 renal
[6] = tested on: SK-OV-3 ovarian
[7] = tested on: SW-620 colon
[8] = tested on: A549 NSCLC
[9] = tested on: HOP-62 NSCLC
[10] = tested on: NCI/ADR-RES ovarian
[11] = tested on: A498 renal
[12] = tested on: SK-MEL-2 melanoma
[13] = tested on: CAKI-1 renal
[14] = tested on: MDA-MB-231 breast
[15] = tested on: NCI-H23 lung
[16] = tested on: IGROV1 ovarian
[17] = tested on: HCT-15 colon
[18] = tested on: U251 CNS
[19] = tested on: K-562 leukemia
[20] = tested on: MCF7 breast
[21] = tested on: SK-MEL-28 melanoma
[22] = tested on: M14 melanoma
[23] = tested on: 786-0 renal
[24] = tested on: HCC-2998 colon
[25] = tested on: SF-295 CNS
[26] = tested on: COLO 205 colon
[27] = tested on: HT29 colon
[28] = tested on: NCI-H522 lung
[29] = tested on: T-47D breast
[30] = tested on: SR leukemia
[31] = tested on: SF-268 CNS
[32] = tested on: TK-10 renal
[33] = tested on: NCI-H226 lung
[34] = tested on: DU-145 prostate
[35] = tested on: HS 578T breast
[36] = tested on: KM12 colon
[37] = tested on: OVCAR-8 ovarian
[38] = tested on: SK-MEL-5 melanoma
[39] = tested on: LOX IMVI melanoma
[40] = tested on: HCT-116 colon
[41] = tested on: NCI-H460 lung
[42] = tested on: OVCAR-3 ovarian
[43] = tested on: HOP-92 NSCLC
[44] = tested on: BT-549 breast
[45] = tested on: UACC-62 melanoma
[46] = tested on: PC-3 prostate
[47] = tested on: UO-31 renal
[48] = tested on: MALME-3M melanoma
[49] = tested on: MOLT-4 leukemia
[50] = tested on: EKVX NSCLC
[51] = tested on: MDA-N
[52] = tested on: UACC-257 melanoma
[53] = tested on: SNB-75 CNS
[54] = tested on: RPMI-8226 leukemia
[55] = tested on: SNB-19 CNS
[56] = tested on: ACHN renal
[57] = tested on: OVCAR-4 ovarian
[58] = tested on: HL-60(TB) leukemia
[59] = tested on: SF-539 CNS

In the case of `CC(C)(C)OC(=O)NCC(=O)N(CCc1ccc(Cl)c(Cl)c1)CCN1CCCC1`, the TGI [1] is reported as 38.7 µM, the TGI [2] is reported as 28.4 µM and the TGI [3] is reported as 32.7 µM. It also gave a TGI [4] of 28.4 µM, a TGI [5] of 29.7 µM and a TGI [6] of 32.1 µM. For the same compound, the TGI [7] was 37.3 µM, the TGI [8] was 37.7 µM and the TGI [9] was 27.7 µM. It also gave a TGI [10] of 36.7 µM, a TGI [11] of 32.8 µM and a TGI [12] of 31.3 µM. For the same compound, the TGI [13] was 36 µM, the TGI [14] was 26.6 µM and the TGI [15] was 37.1 µM. For the same compound, the TGI [16] was 31.5 µM, the TGI [17] was 37.4 µM and the TGI [18] was 28.7 µM. The TGI [19] was 25.1 µM, the TGI [20] was 31.8 µM and the TGI [21] was 29.7 µM. For the same compound, the TGI [22] was 28.6 µM, the TGI [23] was 28 µM and the TGI [24] was 16.2 µM. For the same compound, the TGI [25] was 33.1 µM, the TGI [26] was 30 µM and the TGI [27] was 23.7 µM. It also gave a TGI [28] of 29.4 µM, a TGI [29] of 53.5 µM and a TGI [30] of 32.2 µM. For the same compound, the TGI [31] was 31.6 µM, the TGI [32] was 31.5 µM and the TGI [33] was 32.3 µM. The TGI [34] was 32.3 µM, the TGI [35] was 46.5 µM and the TGI [36] was 32.6 µM. For the same compound, the TGI [37] was 35.8 µM, the TGI [38] was 28.4 µM and the TGI [39] was 29.3 µM. For the same compound, the TGI [40] was 27.9 µM, the TGI [41] was 30.2 µM and the TGI [42] was 32.2 µM. The TGI [43] was 19.4 µM, the TGI [44] was 42.1 µM and the TGI [45] was 32.2 µM. It also gave a TGI [46] of 30.3 µM, a TGI [47] of 28.7 µM and a TGI [48] of 36.4 µM. The TGI [49] was 28.5 µM, the TGI [50] was 48.1 µM and the TGI [51] was 29.1 µM. It also gave a TGI [52] of 29.9 µM, a TGI [53] of 37.2 µM and a TGI [54] of 23.8 µM. For the same compound, the TGI [55] was 34.4 µM, the TGI [56] was 40.8 µM and the TGI [57] was 54.9 µM. The TGI [58] was 30.4 µM and the TGI [59] was 32.8 µM.

Work on `O=C(c1ccc(Cl)c(Cl)c1)N(C(=O)N1CCN(c2ccccc2)CC1)S(=O)(=O)c1ccccc1` yielded a TGI [1] of 64.5 µM, a TGI [2] greater than 100 µM and a TGI [3] greater than 100 µM. It also gave a TGI [4] greater than 100 µM, a TGI [5] greater than 100 µM and a TGI [6] of 79.6 µM. The TGI [7] was greater than 100 µM, the TGI [8] was greater than 100 µM and the TGI [9] was greater than 100 µM. The TGI [10] was greater than 100 µM, the TGI [11] was greater than 100 µM and the TGI [12] was 48.2 µM. It also gave a TGI [13] greater than 100 µM, a TGI [14] greater than 100 µM and a TGI [15] of 96.2 µM. It also gave a TGI [17] of 59.1 µM, a TGI [18] of 62.9 µM and a TGI [19] greater than 100 µM. The TGI [20] was greater than 100 µM, the TGI [21] was greater than 100 µM and the TGI [22] was greater than 100 µM. The TGI [23] was greater than 100 µM, the TGI [24] was greater than 100 µM and the TGI [25] was greater than 100 µM. It also gave a TGI [26] greater than 100 µM, a TGI [27] greater than 100 µM and a TGI [28] of 39.7 µM. It also gave a TGI [29] greater than 100 µM, a TGI [30] greater than 100 µM and a TGI [31] greater than 100 µM. The TGI [32] was greater than 100 µM, the TGI [33] was 87.9 µM and the TGI [34] was greater than 100 µM. It also gave a TGI [35] greater than 100 µM, a TGI [36] greater than 100 µM and a TGI [37] of 83.5 µM. The TGI [38] was 84.7 µM, the TGI [39] was 40.5 µM and the TGI [40] was 86.8 µM. The TGI [41] was greater than 100 µM, the TGI [42] was greater than 100 µM and the TGI [43] was 84.4 µM. For the same compound, the TGI [44] was greater than 100 µM, the TGI [45] was greater than 100 µM and the TGI [46] was 93.5 µM. The TGI [47] was 50.3 µM, the TGI [48] was greater than 100 µM and the TGI [49] was 41.8 µM. It also gave a TGI [50] greater than 100 µM, a TGI [51] of 62.8 µM and a TGI [52] greater than 100 µM. The TGI [53] was greater than 100 µM, the TGI [54] was greater than 100 µM and the TGI [55] was greater than 100 µM. The TGI [56] was greater than 100 µM, the TGI [57] was 65.6 µM and the TGI [58] was greater than 100 µM. It also gave a TGI [59] greater than 100 µM.

`Nc1ncc(N)c(NCC2(CO)CC(CCc3ccccc3)C2)n1` (stereo not given) gave a TGI [1] of 28.5 µM, a TGI [2] of 22.9 µM and a TGI [3] of 24.9 µM. The TGI [4] was 4.34 µM, the TGI [5] was 27.8 µM and the TGI [6] was 25.4 µM. For the same compound, the TGI [7] was 23.9 µM, the TGI [8] was 28.8 µM and the TGI [9] was 28.3 µM. The TGI [10] was 40.9 µM, the TGI [11] was 27.4 µM and the TGI [12] was 23 µM. It also gave a TGI [13] of 21.8 µM, a TGI [14] of 14.8 µM and a TGI [15] of 20.8 µM. For the same compound, the TGI [16] was 22.4 µM, the TGI [17] was 36.5 µM and the TGI [18] was 19.6 µM. It also gave a TGI [19] of 12.9 µM, a TGI [20] of 15.9 µM and a TGI [21] of 27.9 µM. It also gave a TGI [22] of 24 µM, a TGI [23] of 22.5 µM and a TGI [24] of 23.7 µM. The TGI [25] was 24.5 µM, the TGI [26] was 16.8 µM and the TGI [27] was 20.5 µM. For the same compound, the TGI [28] was 3.58 µM, the TGI [29] was 9.82 µM and the TGI [30] was 13.2 µM. For the same compound, the TGI [31] was greater than 43 µM, the TGI [32] was 25.1 µM and the TGI [33] was 18.4 µM. For the same compound, the TGI [34] was 24.2 µM, the TGI [35] was 36.1 µM and the TGI [36] was 23 µM. It also gave a TGI [37] of 23.7 µM, a TGI [38] of 14 µM and a TGI [39] of 16.6 µM. The TGI [40] was 20.1 µM, the TGI [41] was 30.5 µM and the TGI [42] was 13.3 µM. It also gave a TGI [43] of 11.5 µM, a TGI [44] of 23.1 µM and a TGI [45] of 21.1 µM. The TGI [46] was 18.9 µM, the TGI [47] was 15 µM and the TGI [48] was 23.7 µM. The TGI [49] was 8.56 µM, the TGI [50] was 22.7 µM and the TGI [51] was 21.5 µM. For the same compound, the TGI [52] was 22.8 µM, the TGI [53] was 29.4 µM and the TGI [54] was 4.78 µM. The TGI [55] was 23.4 µM, the TGI [56] was 24.5 µM and the TGI [57] was 20.8 µM. It also gave a TGI [58] of 0.987 µM and a TGI [59] of 8.67 µM.

With `CC1=NN(C(=O)CC(=O)Nc2ccc(Cl)cc2)C(=O)C1N=Nc1ccc(S(=O)(=O)c2ccc(N=NC3C(=O)N(C(=O)CC(=O)Nc4ccc(Cl)cc4)N=C3C)cc2)cc1` (stereo not given) the TGI [1] was greater than 100 µM, the TGI [2] was greater than 100 µM and the TGI [3] was greater than 100 µM. It also gave a TGI [4] greater than 100 µM, a TGI [5] greater than 100 µM and a TGI [6] greater than 100 µM. For the same compound, the TGI [7] was greater than 100 µM, the TGI [8] was greater than 100 µM and the TGI [9] was greater than 100 µM. For the same compound, the TGI [10] was greater than 100 µM, the TGI [11] was greater than 100 µM and the TGI [12] was greater than 100 µM. For the same compound, the TGI [13] was greater than 100 µM, the TGI [14] was greater than 100 µM and the TGI [15] was greater than 100 µM. For the same compound, the TGI [16] was greater than 100 µM, the TGI [17] was greater than 100 µM and the TGI [18] was 59.6 µM. For the same compound, the TGI [19] was greater than 100 µM, the TGI [20] was greater than 100 µM and the TGI [21] was greater than 100 µM. For the same compound, the TGI [22] was greater than 100 µM, the TGI [23] was greater than 100 µM and the TGI [24] was greater than 100 µM. For the same compound, the TGI [25] was greater than 100 µM, the TGI [26] was greater than 100 µM and the TGI [27] was greater than 100 µM. For the same compound, the TGI [28] was greater than 100 µM, the TGI [29] was greater than 100 µM and the TGI [30] was greater than 100 µM. It also gave a TGI [31] greater than 100 µM, a TGI [32] of 79.1 µM and a TGI [33] greater than 100 µM. For the same compound, the TGI [34] was greater than 100 µM, the TGI [35] was greater than 100 µM and the TGI [36] was greater than 100 µM. The TGI [37] was greater than 100 µM, the TGI [38] was greater than 100 µM and the TGI [39] was greater than 100 µM. For the same compound, the TGI [40] was greater than 100 µM, the TGI [41] was greater than 100 µM and the TGI [42] was greater than 100 µM. It also gave a TGI [43] greater than 100 µM, a TGI [44] greater than 100 µM and a TGI [45] greater than 100 µM. For the same compound, the TGI [46] was greater than 100 µM, the TGI [47] was greater than 100 µM and the TGI [48] was greater than 100 µM. The TGI [49] was greater than 100 µM, the TGI [50] was greater than 100 µM and the TGI [51] was greater than 100 µM. The TGI [52] was greater than 100 µM, the TGI [53] was greater than 100 µM and the TGI [54] was greater than 100 µM. The TGI [55] was greater than 100 µM, the TGI [56] was greater than 100 µM and the TGI [57] was greater than 100 µM. For the same compound, the TGI [58] was greater than 100 µM and the TGI [59] was greater than 100 µM.
